What was measured:
[1] = tested on: SW780; experiment: Cell viability assay for additional cell lines: SW780; format: cell-based; settings: for GI50: Homo sapiens, 216 h, 9-day treatment, average of n=2, read-out: MTAP-Deleted GI50
Description: (§1) Some Compounds of the Disclosure were tested in Calu-6 (Vendor: ATCC; Cat #HTB-56; Description: lung, adenocarcinoma), LU99 (Vendor: JCRB; Cat #JCRB0080; Description: non-small cell lung cancer), SW780 (Vendor: ATCC; Cat #CRL-2169; Description: bladder urothelial carcinoma), BxPC-3 (Vendor: ATCC; Cat #CRL-1687; Description: pancreatic adenocarcinoma), Panc-1 (Vendor: ATCC; Cat #CRL-1469 Description: pancreatic adenocarcinoma), AsPC-1 (Vendor: ATCC; Cat #CRL-1682; Description: pancreatic adenocarcinoma), Calu-6 (Vendor: ATCC; Cat #HTB-56; Description: non-small cell lung cancer), and U-2 OS (Vendor: ATCC; Cat #HTB-96; Description: osteosarcoma), cellular viability assays according to the general protocol. Seeded cells into 96-well plate and incubated overnight. Seeded an additional 10 wells per cell line in an additional 96-well plate for assessing Time Zero luminescence and incubated overnight. To treatment plates, added compounds into each well using Tecan D300e dispenser (nine three-fold dilutions starting at 10 μM) and incubated for 9 days. Time Zero (no compound treatment, luminescence assessed on day 1) and 9-day treatment (luminescence assessed on day 10) plates were assessed using the same CellTiter-Glo® substrate protocol. Thawed CellTiter-Glo® Buffer and lyophilized CellTiter-Glo® substrate and equilibrated to room temperature prior to use. The DMSO concentration was normalized to 0.137%. Transferred 100 ml CellTiter-Glo® Buffer into amber bottle containing CellTiter-Glo® substrate to reconstitute the lyophilized enzyme/substrate mixture. For Time Zero and 9-day treatment plates, removed all plating media. Added 100 μl fresh media/well. Added 100 μl CellTiter-Glo® Reagent per well. Mixed contents for 10 min on an orbital shaker to lyse cells. Recorded luminescence with Perkin Elmer Envision 2105 machine. Analyzed the data with GraphPad software. Potency fold difference is defined as GI50 (AMG193)/GI50 (Ca-47) for the MTAP^del cell line of interest. The structure of AMG193 is as follows.

[2] = tested on: LU99; experiment: Cell viability assay for additional cell lines: LU99; format: cell-based; settings: for GI50: Homo sapiens, Lu-99, 216 h, 9-day treatment, average of n=2, read-out: MTAP-Deleted GI50
Description: as §1

[3] = tested on: Panc-1; experiment: Cell viability assay for additional cell lines: Panc-1; format: cell-based; settings: for GI50: Homo sapiens, 216 h, 9-day treatment, average of n=2, read-out: MTAP-Deleted GI50
Description: as §1

[4] = tested on: U-2 OS; experiment: Cell viability assay for additional cell lines: U-2 OS; format: cell-based; settings: Homo sapiens, U2OS, 216 h, 9-day treatment, average of n=2, read-out: MTAP-WT GI50
Description: as §1, with “Thawed CellTiter-Glo® Buffer and lyophilized CellTiter-Glo® substrate and equilibrated to room temperature prior to use. The DMSO concentration was normalized to 0.137%. Transferred 100 ml CellTiter-Glo® Buffer into amber bottle containing CellTiter-Glo® substrate to reconstitute the lyophilized enzyme/substrate mixture. For Time Zero and 9-day treatment plates, removed all plating media. Added 100 μl fresh media/well. Added 100 μl CellTiter-Glo® Reagent per well. Mixed contents for 10 min on an orbital shaker to lyse cells.” left out, “Potency fold difference is defined as GI50 (AMG193)/GI50 (Ca-47) for the MTAP^del cell line of interest. The structure of AMG193 is as follows.” left out

[5] = Sprague-Dawley Rat PK; format: in vivo; settings: for BPR: Blood plasma ratio; for clearance / half-life / Vd: IV 0.33 mg/Kg; for clearance: plasma clearance, read-out: Observed CLp (converted); for Fold IVIVc: [Observed CLp/[BPR]/[Predicted Hepatocyte CL]; for half-life / Vd: plasma; for Vd: read-out: Vss
Source text: The following abbreviations are defined as follows for table 5. BPR: Blood plasma ratio, CLp: plasma clearance.
Cell viability assay data for LU99, SW780, BxPC-3, Panc-1, AsPC-1, Calu-6 and U-2 OS for AMG-193 and example Ca-47 are provided in Table 4. The following abbreviations are defined as follows for table 5. BPR: Blood plasma ratio, CLp: plasma clearance. Fold IVIVc=[Observed CLp/[BPR]/[Predicted Hepatocyte CL]

[6] = tested on: HCT116 MTAP-deleted cell lines; experiment: Cell viability assay for HCT116 isogenic pair (CellTitre-Glo, 7 days); format: cell-based; settings: Homo sapiens, HCT-116, 168 h, 7 days of treatment, cell line not given
How it was run: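 HCT116 WT or MTAP-deleted cells, 100 per well, seeded onto pre-spotted PRMT5 inhibitor dose series in RPMI 1640/10% heat-inactivated FBS and grown 7 days at 37° C, 5% CO2. CellTiter-Glo luminescence then read; CC50 (nM) from 4-parameter logistic fit.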

[7] = tested on: Calu-6; experiment: Cell viability assay for additional cell lines: Calu-6; format: cell-based; settings: Homo sapiens, 216 h, 9-day treatment, average of n=2, read-out: MTAP-WT GI50
Description: as §1, with “Thawed CellTiter-Glo® Buffer and lyophilized CellTiter-Glo® substrate and equilibrated to room temperature prior to use. The DMSO concentration was normalized to 0.137%. Transferred 100 ml CellTiter-Glo® Buffer into amber bottle containing CellTiter-Glo® substrate to reconstitute the lyophilized enzyme/substrate mixture. For Time Zero and 9-day treatment plates, removed all plating media. Added 100 μl fresh media/well. Added 100 μl CellTiter-Glo® Reagent per well. Mixed contents for 10 min on an orbital shaker to lyse cells.” left out, “Potency fold difference is defined as GI50 (AMG193)/GI50 (Ca-47) for the MTAP^del cell line of interest. The structure of AMG193 is as follows.” left out

[8] = tested on: BxPC-3; experiment: Cell viability assay for additional cell lines: BxPC-3; format: cell-based; settings: for GI50: Homo sapiens, 216 h, 9-day treatment, average of n=2, read-out: MTAP-Deleted GI50
Description: as §1

[9] = tested on: AsPC-1; experiment: Cell viability assay for additional cell lines: AsPC-1; format: cell-based; settings: Homo sapiens, ASPC1, 216 h, 9-day treatment, average of n=2, read-out: MTAP-WT GI50
Description: as §1, with “Thawed CellTiter-Glo® Buffer and lyophilized CellTiter-Glo® substrate and equilibrated to room temperature prior to use. The DMSO concentration was normalized to 0.137%. Transferred 100 ml CellTiter-Glo® Buffer into amber bottle containing CellTiter-Glo® substrate to reconstitute the lyophilized enzyme/substrate mixture. For Time Zero and 9-day treatment plates, removed all plating media. Added 100 μl fresh media/well. Added 100 μl CellTiter-Glo® Reagent per well. Mixed contents for 10 min on an orbital shaker to lyse cells.” left out, “Potency fold difference is defined as GI50 (AMG193)/GI50 (Ca-47) for the MTAP^del cell line of interest. The structure of AMG193 is as follows.” left out

| GI50 [1] [nM] | GI50 [3] [nM] | BPR [5] | clearance [5] [mL/min/kg] | Fold IVIVc [5] [x] | half-life [5] [h] | Vd [5] [L/kg] | GI50 [7] [nM] | GI50 [8] [nM] | GI50 [9] [nM] | Compound | Potency fold difference ([1]; GI50 (AMG193)/GI50 (Ca-47)) | Potency fold difference ([2]; GI50 (AMG193)/GI50 (Ca-47)) | GI50 [2] [nM] | Potency fold difference ([3]; GI50 (AMG193)/GI50 (Ca-47)) | GI50 [4] [nM] | CC50 [6] [nM] | Potency fold difference ([8]; GI50 (AMG193)/GI50 (Ca-47)) |
| --- | --- | --- | --- | --- | --- | --- | --- | --- | --- | --- | --- | --- | --- | --- | --- | --- | --- |
| 17 | 87 | 0.89 | 14.2 | 0.37 | 2.5 | 2.08 | 1600 | 16 | 2800 | Nc1nc2cnc(C(=O)N3CCC[C@@H]4Oc5cc(C(F)(F)F)cc(F)c5[C@@H]43)cc2c2c1COC2 [Example Ca-47, (4-amino-1,3-dihydrofuro[3,4-c][1,7]naphthyridin-8-yl)((4aS,9bS)-9-fluoro-7-(trifluoromethyl)-3,4,4a,9b-tetrahydrobenzofuro[3,2-b]pyridin-1(2H)-yl)methanone] | 5.6 | 5 | 9 | 5.9 | 2300 | 14 | 4.3 |
| 96 | 517 | 0.95 | 37.7 | 1 | 1.1 | 1.82 | 7000 | 68 | > 10000 | Nc1nc2cnc(C(=O)N3CCOC[C@@H]3c3ccc(C(F)(F)F)cc3)cc2c2c1COC2 [AMG193, reference compound] |  |  | 45 |  | 9360 | 69 |  |

Reference: US20250154172A1, “PRMT5 INHIBITORS AND USES THEREOF” (Gilead Sciences, Inc., priority 2023, published 2025)
